Test results as given in patent US7713958B2, “Compounds and compositions as protein kinase inhibitors” (IRM LLC, priority 2003, dated 2010).

Columns and labels:
Assay type in all cases: biochemical
CDK1 = CDK1 (Homo sapiens, UniProt P06493); assay: Kinase inhibition at 10 μM, CDK1; conditions: 10 μM of Compound; read-out: Percentage Inhibition of CDK1
c-Kit = c-Kit (Homo sapiens, UniProt P10721); assay: Kinase inhibition at 10 μM, c-Kit; conditions: 10 μM of Compound; read-out: Percentage Inhibition of c-Kit
FGFR-1 = FGFR-1 (Homo sapiens, UniProt P11362); assay: Kinase inhibition at 10 μM, FGFR-1; conditions: 10 μM of Compound; read-out: Percentage Inhibition of FGFR-1
c-Met = c-Met (Homo sapiens, UniProt P08581); assay: Kinase inhibition at 10 μM, c-Met; conditions: 10 μM of Compound; read-out: Percentage Inhibition of c-Met
c-src = c-src (Homo sapiens, UniProt P12931); assay: Kinase inhibition at 10 μM, c-src; conditions: 10 μM of Compound; read-out: Percentage Inhibition of c-src
KDR = KDR (Homo sapiens, UniProt P35968); assay: Kinase inhibition at 10 μM, KDR; conditions: 10 μM of Compound; read-out: Percentage Inhibition of KDR
c-Abl = c-Abl (Homo sapiens, UniProt P00519); assay: Kinase inhibition at 10 μM, c-Abl; conditions: 10 μM of Compound; read-out: Percentage Inhibition of c-Abl
Tek = Tek (Homo sapiens, UniProt Q02763); assay: Kinase inhibition at 10 μM, Tek; conditions: 10 μM of Compound; read-out: Percentage Inhibition of Tek
IGF-1R = IGF-1R (Homo sapiens, UniProt P08069); assay: Kinase inhibition at 10 μM, IGF-1R; conditions: 10 μM of Compound; read-out: Percentage Inhibition of IGF-1R
Flt-1 = Flt-1 (Homo sapiens, UniProt P17948); assay: Kinase inhibition at 10 μM, Flt-1; conditions: 10 μM of Compound; read-out: Percentage Inhibition of Flt-1
Flt-3 = target: T1, Flt-3 (Homo sapiens, UniProt P36888); assay: Kinase inhibition at 10 μM, Flt-3; conditions: 10 μM of Compound; read-out: Percentage Inhibition of Flt-3
T1 sequence (P36888 27-993): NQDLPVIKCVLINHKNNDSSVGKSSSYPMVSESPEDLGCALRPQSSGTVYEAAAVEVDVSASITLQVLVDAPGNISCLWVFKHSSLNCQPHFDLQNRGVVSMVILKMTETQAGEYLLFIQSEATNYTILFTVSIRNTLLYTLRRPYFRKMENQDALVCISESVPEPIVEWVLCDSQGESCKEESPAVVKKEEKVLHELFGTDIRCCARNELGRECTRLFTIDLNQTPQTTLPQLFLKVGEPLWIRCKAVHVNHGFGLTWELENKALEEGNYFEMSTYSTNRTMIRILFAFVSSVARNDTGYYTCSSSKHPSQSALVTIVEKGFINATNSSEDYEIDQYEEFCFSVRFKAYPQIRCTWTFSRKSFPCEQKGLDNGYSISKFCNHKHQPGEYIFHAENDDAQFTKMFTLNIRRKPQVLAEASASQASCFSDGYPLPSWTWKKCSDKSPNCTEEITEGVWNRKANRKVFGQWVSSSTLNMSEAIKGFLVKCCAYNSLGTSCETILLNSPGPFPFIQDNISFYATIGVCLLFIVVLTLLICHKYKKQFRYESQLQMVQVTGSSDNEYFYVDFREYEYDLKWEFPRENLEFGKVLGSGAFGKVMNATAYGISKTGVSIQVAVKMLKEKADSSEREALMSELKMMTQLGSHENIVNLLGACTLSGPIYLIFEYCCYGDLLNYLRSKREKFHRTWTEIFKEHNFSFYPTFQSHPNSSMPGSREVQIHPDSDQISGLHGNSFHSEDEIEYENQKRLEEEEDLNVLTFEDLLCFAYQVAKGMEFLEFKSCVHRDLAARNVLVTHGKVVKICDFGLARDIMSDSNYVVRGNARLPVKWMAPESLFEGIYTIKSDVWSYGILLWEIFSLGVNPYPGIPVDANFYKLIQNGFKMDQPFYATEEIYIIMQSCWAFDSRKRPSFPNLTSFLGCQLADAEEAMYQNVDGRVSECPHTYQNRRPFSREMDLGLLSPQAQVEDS

PDGFR-β = PDGFR-β (Homo sapiens, UniProt P09619); assay: Kinase inhibition at 10 μM, PDGFR-β; conditions: 10 μM of Compound; read-out: Percentage Inhibition of PDGFR-β

c-src, sequence (P12931 whole entry, species assumed): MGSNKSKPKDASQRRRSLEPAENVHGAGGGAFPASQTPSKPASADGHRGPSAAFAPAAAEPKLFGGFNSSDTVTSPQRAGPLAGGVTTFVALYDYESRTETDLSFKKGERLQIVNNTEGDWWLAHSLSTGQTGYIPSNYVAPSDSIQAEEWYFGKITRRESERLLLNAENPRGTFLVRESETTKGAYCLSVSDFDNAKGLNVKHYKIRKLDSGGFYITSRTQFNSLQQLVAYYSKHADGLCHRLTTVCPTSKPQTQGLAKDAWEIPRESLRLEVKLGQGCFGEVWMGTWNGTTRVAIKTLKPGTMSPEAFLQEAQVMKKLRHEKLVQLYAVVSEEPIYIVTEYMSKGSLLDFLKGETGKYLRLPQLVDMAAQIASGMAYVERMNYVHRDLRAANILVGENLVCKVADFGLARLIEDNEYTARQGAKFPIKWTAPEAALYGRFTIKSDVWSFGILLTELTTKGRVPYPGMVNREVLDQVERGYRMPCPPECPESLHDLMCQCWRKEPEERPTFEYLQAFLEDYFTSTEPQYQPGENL
CDK1, sequence (P06493 whole entry, species assumed): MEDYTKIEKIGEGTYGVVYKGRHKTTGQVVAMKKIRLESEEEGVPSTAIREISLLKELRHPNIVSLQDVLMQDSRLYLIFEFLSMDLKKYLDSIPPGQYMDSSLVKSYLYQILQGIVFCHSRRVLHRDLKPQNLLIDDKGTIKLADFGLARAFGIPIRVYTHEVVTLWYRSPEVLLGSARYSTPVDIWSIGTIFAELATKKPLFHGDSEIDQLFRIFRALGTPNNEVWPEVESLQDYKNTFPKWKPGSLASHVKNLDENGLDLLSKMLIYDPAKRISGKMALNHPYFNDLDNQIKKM
CDK1, sequence (P14635 whole entry partner, species assumed): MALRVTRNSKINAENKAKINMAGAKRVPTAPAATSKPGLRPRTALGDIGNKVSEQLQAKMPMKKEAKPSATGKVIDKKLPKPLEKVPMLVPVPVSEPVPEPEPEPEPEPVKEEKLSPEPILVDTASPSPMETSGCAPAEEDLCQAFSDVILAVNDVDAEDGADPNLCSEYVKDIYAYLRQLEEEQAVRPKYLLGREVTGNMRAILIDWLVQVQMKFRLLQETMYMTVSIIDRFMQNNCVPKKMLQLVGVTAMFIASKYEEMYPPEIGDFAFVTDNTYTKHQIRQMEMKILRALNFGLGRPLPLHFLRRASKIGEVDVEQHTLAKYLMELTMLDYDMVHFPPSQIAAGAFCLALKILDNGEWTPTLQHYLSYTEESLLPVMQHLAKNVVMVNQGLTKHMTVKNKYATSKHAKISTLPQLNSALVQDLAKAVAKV
Tek, sequence (Q02763 23-1124, species assumed): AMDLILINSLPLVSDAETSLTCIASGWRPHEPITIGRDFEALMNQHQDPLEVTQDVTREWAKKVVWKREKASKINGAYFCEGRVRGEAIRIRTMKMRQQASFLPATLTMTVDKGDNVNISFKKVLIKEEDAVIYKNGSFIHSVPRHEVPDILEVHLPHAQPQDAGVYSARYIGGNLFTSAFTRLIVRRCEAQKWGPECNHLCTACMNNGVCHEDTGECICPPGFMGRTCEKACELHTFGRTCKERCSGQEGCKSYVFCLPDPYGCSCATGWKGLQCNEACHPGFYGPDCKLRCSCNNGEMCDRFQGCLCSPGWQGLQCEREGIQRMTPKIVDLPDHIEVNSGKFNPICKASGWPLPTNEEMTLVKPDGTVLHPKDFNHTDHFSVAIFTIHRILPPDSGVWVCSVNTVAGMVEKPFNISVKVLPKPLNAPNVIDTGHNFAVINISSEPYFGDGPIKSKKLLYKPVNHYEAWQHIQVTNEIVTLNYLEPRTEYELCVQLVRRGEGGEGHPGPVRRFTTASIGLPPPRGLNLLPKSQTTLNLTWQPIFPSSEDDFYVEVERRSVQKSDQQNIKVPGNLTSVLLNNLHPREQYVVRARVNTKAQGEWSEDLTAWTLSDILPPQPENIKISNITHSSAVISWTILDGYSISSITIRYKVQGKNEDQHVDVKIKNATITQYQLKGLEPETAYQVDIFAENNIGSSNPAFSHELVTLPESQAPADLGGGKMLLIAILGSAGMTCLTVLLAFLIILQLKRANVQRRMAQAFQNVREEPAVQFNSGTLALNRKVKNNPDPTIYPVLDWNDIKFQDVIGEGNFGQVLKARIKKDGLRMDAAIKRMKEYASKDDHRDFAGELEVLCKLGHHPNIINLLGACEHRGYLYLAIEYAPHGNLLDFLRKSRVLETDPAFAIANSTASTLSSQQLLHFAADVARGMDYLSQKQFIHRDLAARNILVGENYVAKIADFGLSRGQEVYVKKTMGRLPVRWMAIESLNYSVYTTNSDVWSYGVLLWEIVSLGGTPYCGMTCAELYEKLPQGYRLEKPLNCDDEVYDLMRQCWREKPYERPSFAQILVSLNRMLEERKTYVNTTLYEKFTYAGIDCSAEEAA
c-Kit, sequence (P10721 26-976): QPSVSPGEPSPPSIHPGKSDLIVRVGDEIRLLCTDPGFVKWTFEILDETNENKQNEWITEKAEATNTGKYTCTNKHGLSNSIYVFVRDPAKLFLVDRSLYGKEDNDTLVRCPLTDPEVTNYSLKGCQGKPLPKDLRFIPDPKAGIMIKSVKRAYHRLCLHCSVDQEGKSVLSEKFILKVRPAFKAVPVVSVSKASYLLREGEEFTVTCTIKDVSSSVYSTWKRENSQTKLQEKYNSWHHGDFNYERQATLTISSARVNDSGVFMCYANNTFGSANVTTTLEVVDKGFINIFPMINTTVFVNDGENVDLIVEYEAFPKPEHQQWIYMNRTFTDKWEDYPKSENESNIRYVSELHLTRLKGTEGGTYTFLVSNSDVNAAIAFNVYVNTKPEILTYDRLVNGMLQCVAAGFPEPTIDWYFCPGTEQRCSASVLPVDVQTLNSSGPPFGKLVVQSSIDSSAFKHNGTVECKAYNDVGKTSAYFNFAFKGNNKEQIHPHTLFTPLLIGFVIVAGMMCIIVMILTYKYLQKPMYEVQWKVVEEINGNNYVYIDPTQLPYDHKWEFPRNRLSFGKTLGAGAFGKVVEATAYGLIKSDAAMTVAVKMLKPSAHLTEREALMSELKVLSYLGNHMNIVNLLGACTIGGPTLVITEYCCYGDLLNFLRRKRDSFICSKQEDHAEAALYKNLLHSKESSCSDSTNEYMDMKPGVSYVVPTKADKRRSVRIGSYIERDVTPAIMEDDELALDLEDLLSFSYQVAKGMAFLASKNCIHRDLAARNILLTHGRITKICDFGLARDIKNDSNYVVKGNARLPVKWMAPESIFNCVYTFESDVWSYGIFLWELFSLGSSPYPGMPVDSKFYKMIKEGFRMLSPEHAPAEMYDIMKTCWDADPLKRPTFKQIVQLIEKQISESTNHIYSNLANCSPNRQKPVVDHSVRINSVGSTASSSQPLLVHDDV
c-Abl, sequence (P00519 whole entry): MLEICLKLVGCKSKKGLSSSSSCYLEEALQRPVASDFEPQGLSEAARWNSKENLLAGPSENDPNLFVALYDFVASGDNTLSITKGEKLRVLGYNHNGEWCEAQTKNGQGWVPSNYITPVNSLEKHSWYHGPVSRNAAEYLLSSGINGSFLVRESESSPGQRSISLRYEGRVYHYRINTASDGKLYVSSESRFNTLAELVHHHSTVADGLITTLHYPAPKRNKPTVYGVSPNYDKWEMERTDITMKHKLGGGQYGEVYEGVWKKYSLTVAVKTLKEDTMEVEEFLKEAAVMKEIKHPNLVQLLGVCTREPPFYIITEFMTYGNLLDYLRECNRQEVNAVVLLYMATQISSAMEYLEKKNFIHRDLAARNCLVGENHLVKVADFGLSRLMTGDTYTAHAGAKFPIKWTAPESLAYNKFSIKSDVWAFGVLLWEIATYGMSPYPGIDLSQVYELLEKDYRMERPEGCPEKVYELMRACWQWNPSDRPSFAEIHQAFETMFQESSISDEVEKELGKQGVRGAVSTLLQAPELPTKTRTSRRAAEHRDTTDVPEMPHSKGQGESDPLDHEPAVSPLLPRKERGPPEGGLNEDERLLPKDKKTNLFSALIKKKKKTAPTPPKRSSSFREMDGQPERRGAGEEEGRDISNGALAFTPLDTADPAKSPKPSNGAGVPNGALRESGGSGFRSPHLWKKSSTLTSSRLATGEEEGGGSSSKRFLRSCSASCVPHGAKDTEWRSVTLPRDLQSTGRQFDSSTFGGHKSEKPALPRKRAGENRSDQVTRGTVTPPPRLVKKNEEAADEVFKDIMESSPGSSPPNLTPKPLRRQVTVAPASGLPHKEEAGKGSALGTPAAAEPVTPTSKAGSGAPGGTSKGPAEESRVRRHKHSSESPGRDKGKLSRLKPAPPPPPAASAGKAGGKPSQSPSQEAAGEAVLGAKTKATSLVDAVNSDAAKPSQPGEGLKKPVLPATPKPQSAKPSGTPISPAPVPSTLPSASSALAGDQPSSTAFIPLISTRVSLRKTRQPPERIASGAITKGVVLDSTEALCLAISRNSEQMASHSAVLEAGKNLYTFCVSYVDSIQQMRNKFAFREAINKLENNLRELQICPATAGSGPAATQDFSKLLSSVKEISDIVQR

Compound	inhibition at 10 µM (CDK1)	inhibition at 10 µM (c-Kit)	inhibition at 10 µM (FGFR-1)	inhibition at 10 µM (c-Met)	inhibition at 10 µM (c-src)	inhibition at 10 µM (KDR)	inhibition at 10 µM (c-Abl)	inhibition at 10 µM (Tek)	inhibition at 10 µM (IGF-1R)	inhibition at 10 µM (Flt-1)	inhibition at 10 µM (Flt-3)	inhibition at 10 µM (PDGFR-β)
NC1=NC(=O)/C(=C2\CCNC(=O)c3[nH]c4ccc(F)cc4c32)N1 [Compound 12, 5-(2-amino-5-oxo-3,5-dihydro-imidazol-4-ylidene)-7-fluoro-3,4,5,10-tetrahydro-2H-azepino[3,4-b]indol-1-one]	99%	86%	89%	74%	89%	70%						
O=C1NCC/C(=N\Nc2ccccn2)c2c1[nH]c1ccc(Cl)cc21 [Compound 24, 7-chloro-5-(pyridin-2-yl-hydrazono)-3,4,5,10-tetrahydro-2H-azepino[3,4-b]indol-1-one]	88%	79%			92%		91%	73%	82%	85%	72%	

Results, then the compound that gave them:

inhibition at 10 µM (CDK1)	inhibition at 10 µM (c-Kit)	inhibition at 10 µM (FGFR-1)	inhibition at 10 µM (c-Met)	inhibition at 10 µM (c-src)	inhibition at 10 µM (KDR)	inhibition at 10 µM (c-Abl)	inhibition at 10 µM (Tek)	inhibition at 10 µM (IGF-1R)	inhibition at 10 µM (Flt-1)	inhibition at 10 µM (Flt-3)	inhibition at 10 µM (PDGFR-β)	Compound
95%												NS(=O)(=O)c1ccc(N/N=C2\CCNC(=O)c3[nH]c4ccc(Cl)cc4c32)cc1 [Compound 31, 4-[N′-(7-chloro-1-oxo-1,3,4,10-tetrahydro-2H-azepino[3,4-b]indol-5-ylidene)-hydrazino]-benzenesulfonamide]
97%				78%			70%				97%	O=C1NCC/C(=N\Nc2cccnc2)c2c1[nH]c1ccc(Cl)cc21 [Compound 33, 7-chloro-5-(pyridin-3-yl-hydrazono)-3,4,5,10-tetrahydro-2H-azepino[3,4-b]indol-1-one]
98%				90%		86%	81%	76%	79%	75%		O=C1NCC/C(=N\Nc2ccccn2)c2c1[nH]c1ccc(F)cc21 [Compound 37, 7-fluoro-5-(pyridin-2-yl-hydrazono)-3,4,5,10-tetrahydro-2H-azepino[3,4-b]indol-1-one]
